Here are results for 19 compounds from patent publication US9145415B2, “Nitrogen-containing heterocyclic compound or salt thereof” (FUJIFILM Corporation, priority 2012, dated 2015).

The target of experiment [1] is T1, human FLT3 protein (FLT3 (WT)) (Homo sapiens, UniProt P36888).
T1 construct: human FLT3 protein (intracellular region, 564 to 993 aa); GST; purchased Carna Biosciences; host or cells: baculovirus expression system
T1 sequence (P36888 564-993): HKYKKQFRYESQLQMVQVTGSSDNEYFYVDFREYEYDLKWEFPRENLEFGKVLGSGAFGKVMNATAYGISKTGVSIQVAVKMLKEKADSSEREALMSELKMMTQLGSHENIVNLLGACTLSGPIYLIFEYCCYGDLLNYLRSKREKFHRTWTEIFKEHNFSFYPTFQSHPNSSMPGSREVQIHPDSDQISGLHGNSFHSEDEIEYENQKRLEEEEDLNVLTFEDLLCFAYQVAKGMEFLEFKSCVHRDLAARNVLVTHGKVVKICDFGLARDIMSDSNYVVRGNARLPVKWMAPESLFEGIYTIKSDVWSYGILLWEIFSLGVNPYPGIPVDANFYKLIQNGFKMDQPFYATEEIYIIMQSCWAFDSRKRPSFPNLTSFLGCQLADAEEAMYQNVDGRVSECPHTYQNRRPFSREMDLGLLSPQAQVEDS
Put plainly: FLT3 inhibition test (FLT3 enzyme inhibition, time-resolved fluorescence of substrate peptide phosphorylation). The class given is biochemical. As to conditions: GST-fused human FLT3 (564 to 993 aa), ATP 50 μM; read-out: FLT3 (WT) enzyme inhibition activity. Put shortly:
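Substrate peptide phosphorylation detected by time-resolved fluorescence after a 30 min kinase reaction at 25° C with 50 μM ATP (final). Beforehand, compound and FLT3 (WT, 1.2 μg) stood 15 min at 25° C in HEPES buffer pH 7.5 containing MgCl2, NaCl, BSA and DTT.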

The next experiment has as its system MV4-11 cells. Briefly: Leukemia cell proliferation inhibition test (ATPlite), MV4-11. As to conditions: Homo sapiens, MV4-11, 72 h, MV4-11, 72 hours culture, ATPlite; GI50 per method; read-out: MV4-11 cell proliferation inhibition effect. In kind it is cell-based. Put shortly:
(§1)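 Molm-13 or MV4-11 cells at 10,000 cells/well in RPMI with 10% FBS and pen/strep were exposed to serially diluted compound for 72 h at 37 °C, 5% CO2. Total cellular ATP was read by luciferase luminescence. GI50 was taken relative to 0.1% DMSO control, from duplicates by sigmoid non-linear regression.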
On the technique in general: ATP-based viability assays read luminescence as a measure of living cells.

Another experiment has as its system Molm-13 cells. Briefly: Leukemia cell proliferation inhibition test (ATPlite), Molm-13. In kind it is cell-based. As to conditions: Homo sapiens, MOLM-13, 72 h, Molm-13, 72 hours culture, ATPlite; GI50 per method; read-out: MOLM13 cell proliferation inhibition effect. A digest of the protocol: as §1

For the compound `CNc1nc(Nc2cccc(F)c2)ncc1C#C[C@H]1C[C@@H](NC(=O)[C@H](C)N(C)C(=O)/C=C/CN(C)C)C1` [Compound 13-13, (E)-4-(Dimethylamino)-N—((S)-1-(((1S,3R)-3-((2-((3-fluorophenyl)amino)-4-(methylamino)pyrimidin-5-yl)ethynyl)cyclobutyl)amino)-1-oxopropan-2-yl)-N-methyl-2-butenamide], the IC50 (in experiment [1]; in the experiment with MV4-11 cells; with Molm-13 cells) was under 10 nM throughout.
Regarding `CNc1nc(Nc2ccc(C#N)cc2)ncc1C#C[C@H]1C[C@@H](NC(=O)[C@H](C)N(C)C(=O)/C=C/CN(C)C)C1` [Compound 13-14, (E)-N—((S)-1-(((1S,3R)-3-((2-((4-Cyanophenyl)amino)-4-(methylamino)pyrimidin-5-yl)ethynyl)cyclobutyl)amino)-1-oxopropan-2-yl)-4-(dimethylamino)-N-methyl-2-butenamide], the IC50 (in experiment [1]; in the experiment on MV4-11 cells; with Molm-13 cells) was under 10 nM each time.
Take `CNc1nc(Nc2cccc(C#N)c2)ncc1C#C[C@H]1C[C@@H](NC(=O)[C@H](C)N(C)C(=O)/C=C/CN(C)C)C1` [Compound 13-15, (E)-N—((S)-1-(((1S,3R)-3-((2-((3-Cyanophenyl)amino)-4-(methylamino)pyrimidin-5-yl)ethynyl)cyclobutyl)amino)-1-oxopropan-2-yl)-4-(dimethylamino)-N-methyl-2-butenamide]: the IC50 (in experiment [1]; in the experiment with MV4-11 cells; in the experiment on Molm-13 cells) was under 10 nM in each case.
Regarding `CNc1nc(Nc2ccc(OC)c(F)c2)ncc1C#C[C@H]1C[C@@H](NC(=O)[C@H](C)N(C)C(=O)/C=C/CN(C)C)C1` [Compound 13-16, (E)-4-(Dimethylamino)-N—((S)-1-(((1S,3R)-3-((2-((3-fluoro-4-methoxyphenyl)amino)-4-(methylamino)pyrimidin-5-yl)ethynyl)cyclobutyl)amino)-1-oxopropan-2-yl)-N-methyl-2-butenamide], the IC50 (in experiment [1]; in the experiment on MV4-11 cells; in the experiment on Molm-13 cells) was under 10 nM each time.
As for `CCCNc1nc(Nc2cccc(C#N)c2)ncc1C#C[C@H]1C[C@@H](NC(=O)[C@H](C)N(C)C(=O)/C=C/CN(C)C)C1` [Compound 13-17], the IC50 (in experiment [1]; with MV4-11 cells; with Molm-13 cells) was under 10 nM throughout.
Take `CCCNc1nc(Nc2ccc(F)cc2)ncc1C#C[C@H]1C[C@@H](NC(=O)[C@H](C)N(C)C(=O)/C=C/CN(C)C)C1` [Compound 13-18]: the IC50 (in experiment [1]; in the experiment with MV4-11 cells; in the experiment with Molm-13 cells) was under 10 nM each time.
Take `CNc1nc(Nc2ccc(F)cc2)ncc1C#C[C@H]1C[C@@H](NC(=O)[C@H](C)N(C)C(=O)/C=C/CN(C)C)C1` [Compound 13-19, (E)-4-(Dimethylamino)-N—((S)-1-(((1S,3R)-3-((2-((4-fluorophenyl)amino)-4-(methylamino)pyrimidin-5-yl)ethynyl)cyclobutyl)amino)-1-oxopropan-2-yl)-N-methyl-2-butenamide]: the IC50 (in experiment [1]; in the experiment on MV4-11 cells; in the experiment with Molm-13 cells) was under 10 nM throughout.
As for `C[C@@H](C(=O)N[C@H]1C[C@@H](C#Cc2cnc(Nc3cccc(C#N)c3)nc2NC2CC2)C1)N(C)C(=O)/C=C/CN(C)C` [Compound 13-20, (E)-N—((S)-1-(((1S,3R)-3-((2-((3-Cyanophenyl)amino)-4-(cyclopropylamino)pyrimidin-5-yl)ethynyl)cyclobutyl)amino)-1-oxopropan-2-yl)-4-(dimethylamino)-N-methyl-2-butenamide], the IC50 (in experiment [1]; with MV4-11 cells; in the experiment on Molm-13 cells) was under 10 nM in each case.
With `CNc1ncc(C#C[C@H]2C[C@@H](NC(=O)[C@H](C)N(C)C(=O)/C=C/CN(C)C)C2)c(Nc2ccc(OC)cc2)n1` [Compound 13-21], the IC50 (in experiment [1]; in the experiment on MV4-11 cells; in the experiment on Molm-13 cells) was under 10 nM each time.
Turning to `CNc1ncc(C#C[C@H]2C[C@@H](NC(=O)[C@H](C)N(C)C(=O)/C=C/CN(C)C)C2)c(Nc2ccc(OC)nc2)n1` [Compound 13-22], the IC50 (in experiment [1]; in the experiment on MV4-11 cells; in the experiment on Molm-13 cells) was under 10 nM in each case.
For the compound `CCCNc1nc(Nc2ccnc(F)c2)ncc1C#C[C@@H]1CCC[C@H](NC(=O)[C@H](C)N(C)C(=O)/C=C/CN(C)C)C1` [Compound 14-1, (E)-4-(dimethylamino)-N—((S)-1-(((1S,3R)-3-((2-((2-fluoropyridin-4-yl)amino)-4-(propylamino)pyrimidin-5-yl)ethynyl)cyclohexyl)amino)-1-oxopropan-2-yl)-N-methyl-2-butenamido], the IC50 (in experiment [1]; in the experiment on MV4-11 cells; in the experiment with Molm-13 cells) was under 10 nM throughout.
`C[C@@H](C(=O)N[C@H]1CCC[C@@H](C#Cc2cnc(Nc3ccnc(F)c3)nc2NC2CC2)C1)N(C)C(=O)/C=C/CN(C)C` [Compound 14-2]: the IC50 (in experiment [1]; with MV4-11 cells; in the experiment on Molm-13 cells) was under 10 nM each time.
Regarding `C[C@@H](C(=O)N[C@H]1CCC[C@@H](C#Cc2cnc(Nc3ccnc(F)c3)nc2N2CCOCC2)C1)N(C)C(=O)/C=C/CN(C)C` [Compound 14-3], the IC50 (in experiment [1]; in the experiment with MV4-11 cells; in the experiment with Molm-13 cells) was under 10 nM in each case.
Take `C[C@@H](C(=O)N[C@H]1CCC[C@@H](C#Cc2cnc(Nc3ccc(C#N)cc3)nc2N2CCOCC2)C1)N(C)C(=O)/C=C/CN(C)C` [Compound 14-5]: the IC50 (in experiment [1]; in the experiment on MV4-11 cells; with Molm-13 cells) was under 10 nM in each case.
As for `CCCNc1nc(Nc2ccnc(OC)c2)ncc1C#C[C@H]1C[C@@H](NC(=O)[C@H](C)N(C)C(=O)/C=C/CN(C)C)C1` [Compound 14-6, (E)-4-(Dimethylamino)-N—((S)-1-(((1S,3R)-3-((2-((2-methoxypyridin-4-yl)amino)-4-(propylamino)pyrimidin-5-yl)ethynyl)cyclobutyl)amino)-1-oxopropan-2-yl)-N-methyl-2-butenamide], the IC50 (in experiment [1]; with MV4-11 cells; in the experiment on Molm-13 cells) was under 10 nM throughout.
For `COc1nc(Nc2ccc(C#N)cc2)ncc1C#C[C@@H]1CCC[C@H](NC(=O)[C@H](C)N(C)C(=O)/C=C/CN(C)C)C1` [Compound 15-1, (E)-N—((S)-1-(((1S,3R)-3-((2-((4-cyanophenyl)amino)-4-methoxypyrimidin-5-yl)ethynyl)cyclohexyl)amino)-1-oxopropan-2-yl)-4-(dimethylamino)-N-methyl-2-butenamide], the IC50 (in experiment [1]; in the experiment with MV4-11 cells; in the experiment on Molm-13 cells) was under 10 nM throughout.
On to `COc1nc(Nc2ccc(F)nc2)ncc1C#C[C@@H]1CCC[C@H](NC(=O)[C@H](C)N(C)C(=O)/C=C/CN(C)C)C1` [Compound 15-2], for which the IC50 in experiment [1] is under 10 nM; with MV4-11 cells it was under 10 nM; in the experiment on Molm-13 cells, 10 to 100 nM.
As for `CNc1nc(Nc2ccc(F)nc2)ncc1C#C[C@@H]1CCC[C@H](NC(=O)[C@H](C)N(C)C(=O)/C=C/CN(C)C)C1` [Compound 15-3], the IC50 (in experiment [1]; in the experiment with MV4-11 cells; in the experiment on Molm-13 cells) was under 10 nM in each case.
As to `COc1nc(Nc2cccc(F)c2)ncc1C#C[C@@H]1CCC[C@H](NC(=O)[C@H](C)N(C)C(=O)/C=C/CN(C)C)C1` [Compound 15-4], the IC50 (in experiment [1]; with MV4-11 cells; with Molm-13 cells) was under 10 nM throughout.
